These results are taken from US9682090B2, “Methods for treating and preventing prostate cancer bone metastases” (University of Washington, priority 2014, dated 2017).

Assay [1] addresses T1, PAP (Homo sapiens, UniProt P15309).
T1 sequence (P15309 33-386): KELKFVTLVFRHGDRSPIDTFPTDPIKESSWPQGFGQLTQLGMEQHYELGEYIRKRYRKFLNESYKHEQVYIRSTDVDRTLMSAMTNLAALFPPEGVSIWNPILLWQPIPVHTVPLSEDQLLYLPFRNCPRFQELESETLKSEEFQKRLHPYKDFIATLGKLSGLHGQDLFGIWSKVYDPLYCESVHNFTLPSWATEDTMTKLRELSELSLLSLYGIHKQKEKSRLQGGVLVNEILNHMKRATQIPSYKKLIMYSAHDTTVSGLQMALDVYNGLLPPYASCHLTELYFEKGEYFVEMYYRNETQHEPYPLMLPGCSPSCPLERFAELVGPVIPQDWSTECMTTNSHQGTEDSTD
The following applies: Vovk et al. 2008; cited from earlier work.

For assay [2], the system named is MC3T3-E1 cells. The experiment in a line: Alizarin Red mineralization assay in MC3T3-E1 cells. In kind it is cell-based, mouse. To be noted: PA 25 μM down to 0.2 μM, MC3T3-E1 cells without PAP.
The test system of assay [3] is MC3T3-E1 cells. The experiment in a line: Inhibition of LuCaP 23.1 CM-induced mineralization in MC3T3-E1 cells (Alizarin Red). In kind it is cell-based, mouse. The following applies: 5 μM PA. The protocol: (§1) Cultured cells, HCO or MC3T3-E1, were seeded at 50,000 cells/well in MEM and 10% FBS. MM was added to all cultures 1-2 days after seeding and replaced every other day. MM, LuCaP 23.1 CM (5%, 10%, or 20%), PAP, lyophilized powder obtained from human prostatic fluid (CSI 14633A; CELL SCIENCES®, Canton, Mass.) or phosphonic acid, P-[phenyl[(phenylmethyl)amino]methyl]- (CAS#25881-35-0; AURORA FINE CHEMICALS™ LLC, San Diego, Calif.) was added to cultures typically on day 5-6, before mineralization occurred. After mineralization, cells were fixed in 10% formalin for 20 minutes and then washed. 2% Alizarin Red was added to air-dried plates. After washing, retained dye was extracted in a solution of 20% methanol and 10% acetic acid in water, and absorbance was measured at 405 nm.
(§2) The benzylaminophosphonic acids are inhibitors of PAP (see Beers S A, et al. (1996) Bioorg Med Chem 4:1693-1701). […] To determine if PA would reduce LuCaP 23.1 CM associated mineralization, MC3T3-E1 cells were treated with 5% to 20% LuCaP 23.1 CM with 5 μM PA.

The target in assay [4] is T1, PAP. Put plainly: Inhibition of PAP-induced mineralization in MC3T3-E1 cells (Alizarin Red). In kind it is cell-based. Details: PAP, lyophilized powder obtained from human prostatic fluid; purchased CELL SCIENCES, Canton, Mass; CSI 14633A; host or cells: natural protein from human prostatic fluid; added to mouse MC3T3-E1 cells. To be noted: MC3T3-E1 cells treated with 0.05 units of PAP. As to the method: as §1, §2

SMILES strings stand for the structures.

For `O=P(O)(O)[C@@H](NCc1ccccc1)c1ccccc1` (single isomer, unassigned) [R enantiomer of P-[phenyl[(phenylmethyl)amino]methyl]-, P-[phenyl[(phenylmethyl)amino]methyl]-], in assay [1], the PAP inhibition entry is “potent inhibitor”.
As to `O=P(O)(O)C(NCc1ccccc1)c1ccccc1` (stereo not shown) [PA, [phenyl[(phenylmethyl)amino]methyl]-phosphonic acid], the “inhibition of mineralization by PA alone” value in assay [2] is recorded as “No significant inhibition”. Moreover, the effect on mineralization result in assay [3] (5% LuCaP 23.1 CM), in assay [3] (10% LuCaP 23.1 CM) and in assay [3] (20% LuCaP 23.1 CM) was “significantly reduced mineralization” in each case. The decrease in mineralization is on record as 97.9% in assay [4] (3.15 μM PA), 92.1% in assay [4] (6.25 μM PA), 95.6% in assay [4] (12.5 μM PA) and 97.6% in assay [4] (25 μM PA). Also, the “lowest PA concentration with significant effect on mineralization” value in assay [4] (PA tested 25 μM to 0.2 μM) is 0.4 µM.
